Data from patent US6107549A, “Genetically engineered plant resistance to thiazopyr and other pyridine herbicides” (Monsanto Company, priority 1999, dated 2000).

Legend:
RLE3 = target: T1, RLE3 (Oryctolagus cuniculus, UniProt P12337, A196R/H30K); assay: Esterase activity of RLE3 cDNA expressed in insect cells; type: biochemical, rabbit; conditions: culture media from SF9 cells containing RLE3 cDNA
T1 construct: 19-residue synthetic ER signal peptide (design based on the homologous rat esterase, Robbi et al. 1990; Ala added after Met) (N); made in house; host or cells: Spodoptera frugiperda SF9 cells, baculovirus
T1 sequence (P12337 with tags, fused parts or gaps H30K/A196R): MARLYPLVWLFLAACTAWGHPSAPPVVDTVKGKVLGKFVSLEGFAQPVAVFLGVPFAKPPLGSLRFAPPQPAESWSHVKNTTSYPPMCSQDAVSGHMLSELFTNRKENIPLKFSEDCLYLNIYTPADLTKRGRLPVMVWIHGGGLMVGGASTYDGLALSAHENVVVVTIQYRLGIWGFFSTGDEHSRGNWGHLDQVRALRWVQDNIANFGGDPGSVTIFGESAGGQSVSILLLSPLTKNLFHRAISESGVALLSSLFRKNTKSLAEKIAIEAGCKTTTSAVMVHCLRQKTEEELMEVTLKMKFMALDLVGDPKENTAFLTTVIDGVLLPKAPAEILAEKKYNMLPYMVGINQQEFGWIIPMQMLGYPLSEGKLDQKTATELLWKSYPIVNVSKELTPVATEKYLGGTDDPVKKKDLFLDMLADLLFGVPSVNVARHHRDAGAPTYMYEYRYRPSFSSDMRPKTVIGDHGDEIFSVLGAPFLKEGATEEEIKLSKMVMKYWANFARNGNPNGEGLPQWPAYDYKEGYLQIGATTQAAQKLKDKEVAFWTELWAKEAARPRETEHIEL
Method: Esterase activity assays. Esterase activity was measured in vitro by conversion of either [^14 C]thiazopyr or [^14 C]MON 14300 to their corresponding monoacid. Pyridine-esterase activity was assayed during protein purification and from tissue extracts of transgenic plants. The homogenizing buffer for plant tissues consisted of 100 mM Tris pH 8.0, 1 mM EDTA, 1 mM DTT, and 10% glycerol in water. Plant tissues (1 g/ml buffer) including leaves, seeds, flowers, seedlings, etc. were homogenized in conical centrifuge tubes using a spinning pestle at 4° C. Following centrifugation (12,000× g), the supernatant (250 μl) was assayed immediately for esterase activity by incubation with [^14 C]thiazopyr or [^14 C]MON 14300 (4 μg) in 0.1 M Tris pH 8.0 buffer (50 μl) at 37° C. The reaction was sampled (100 μL) at various times (0.5 to 100 hr) to generate a kinetic profile of monoacid formation. The reaction was stopped by addition of 1% trifluoroacetic acid in acetonitrile (v/v, 150 μl). Following centrifugation (12,000× g for 3 min), the supernatant was analyzed by HPLC/RAD (radioactivity detection) to resolve the monoacid from the parent herbicide and other metabolites. Control reactions in the absence of the esterase recovered un-reacted thiazopyr or MON 14300 for the duration of experiments. Esterase activity was also assayed during protein purification following a similar procedure except a single time-point (1-2 hrs) of incubation was selected within the linear range of reaction. In vitro assays also employed three commonly used calorimetric (p-nitrophenyl butyrate) or fluorescent (4-methyl umbelliferyl butyrate and 5-bromo-4-chloro-3-indolylacetate) substrates. These substrates are useful in rapidly and qualitatively detecting general esterase activity.
Expression of RLE1 and RLE3 cDNAs in insect cells. Mature rabbit liver esterases are glycoproteins which reside in the lumen of the endoplasmic reticulum (ER) (Korza et al., 1988). […]

tobacco calli = assay: Herbicide toxicity to tobacco calli on selection media; type: cell-based; conditions: for callus survival: control calli, concentrations above 1 μM, after 3 weeks; for suitable selection concentration for RLE3-expressing transgenic tobacco calli: preliminary experiments
Excerpt: The experimental procedure compared the herbicide toxicity of the pyridines upon exposure to tobacco calli that were transformed with a plasmid DNA, pMON13765 (FIG. 8) containing the RLE3 gene, and tobacco calli controls transformed with isogenic plasmid DNA without the RLE3 gene. The vectors, which also encoded NPTII for kanamycin selection, were introduced via Agrobacterium transformation. Kanamycin resistant calli were cut into pieces of 3-5 mm diameter and transferred onto selection media (Murahige and Skoog basal salt mixture in 0.9% agar) containing 0.01, 0.1, 1.0, or 10.0 μM concentration of either thiazopyr or MON 14300 (1 mM stock solution in DMSO). Plates were placed in a lighted growth chamber maintained at 22° C. […] Most control calli were dead after 3 weeks at pyridine herbicide concentrations above 1 μM. […] Preliminary experiments identified 0.1 μM 14300 or thiazopyr as a suitable selection concentration for identifying transgenic tobacco calli that are expressing the RLE3 esterase. It is believed that any member of the pyridine herbicide family that is deactivated by an esterase, and any esterase gene that can hydrolyze the methylester group of a pyridine herbicide would be able to function in this selection system.

[1] = control vector calli, concentrations above 0.1 μM, after 2-3 weeks

| Structure (SMILES) | esterase activity against substrate (RLE3) | callus growth (tobacco calli; RLE3 calli, 1.0 to 10 μM) | callus growth (tobacco calli; calli expressing RLE3, 0.1 μM) | callus survival (tobacco calli) | callus growth (tobacco calli; [1]) | suitable selection concentration for RLE3-expressing transgenic tobacco calli (tobacco calli) [µM] |
| --- | --- | --- | --- | --- | --- | --- |
| COC(=O)c1c(C(F)F)nc(C(F)(F)F)c(C(=O)n2cccn2)c1CC(C)C [MON 14300] | demonstrated esterase activity | stunting with reduced shoot development | vigorous growth and shoot development | dead | little growth | 0.1 |
| COC(=O)c1c(C(F)F)nc(C(F)(F)F)c(C2=NCCS2)c1CC(C)C [thiazopyr] | demonstrated esterase activity | stunting with reduced shoot development | vigorous growth and shoot development | dead | little growth | 0.1 |
